Data: patent US4476328A, “Process for producing 3,3,3-trifluoropropyl substituted phenol” (Kureha Kagaku Kogyo Kabushiki Kaisha, priority 1980, dated 1984)

Experiment: electrical properties (dielectric constant, dielectric loss, volume resistivity)
Type: physicochemical
[1] = Table 5, Example 6, temperature not given

## n-octyl-( 3,3,3-trifluoropropyl)benzene [n-octyl(3,3,3-trifluoropropyl)benzene]
[1]
  Dielectric constant: 4.18
  Dielectric loss (tanδ): 0.095%
  Volume resistivity: 1.08 × 10^14 Ω·cm
Table 6, Example 7, at 20° C.
  Dielectric constant: 3.89
  Dielectric loss (tanδ): 0.015%
  Volume resistivity: 8.79 × 10^14 Ω·cm
